Measured values: patent publication US12630542B2, “Compounds and their use as therapeutically active substances in the treatment and/or prevention of diseases involving the retinal pigment epithelium” (ENDOGENA THERAPEUTICS, INC., priority 2020, dated 2026)

Test system: iPSC-fRPE cells
Experiment: Compound screen for RPE pigmentation in iPSC-fRPE cells (light absorbance at 510 nm)
Assay type: cell-based, human
Details: for Relative Pigmentation: test compound 5 μM in 0.1% DMSO, 32 days, absorbance at 510 nm, relative to plate internal DMSO controls (control = 1); for pigmentation of RPE cells / activity, result in words: qualitative statement
Procedure: Induced pluripotent stem cell-derived fetal RPE (iPSC-fRPE) cells acquired from the University of California, Santa Barbara, were generated from human fetal RPE cells that were isolated and reprogramed to iPSC, then differentiated and sorted for cellular markers to collect RPE progenitors. Vials were transported frozen on dry ice and stored in minus 80° C.
For the phenotypic screens, iPSC-fRPE cells were thawed and cultured in Matrigel-coated flasks with N1VA media containing 1×MEM solution supplemented with 2.2 g/L Sodium Bicarbonate, 0.25 mg/ml Taurine, 0.02 ug/ml Hydrocortisone, 0.013 ug/ml Triiodo Thyronine, 0.1 ug/ml Lipoic acid, 1% MEM Non-Essential Amino Acids, 1% Penicillin/Streptomycin, 2% Neurocult SM1 supplement and 1% N1 supplement. For the initial cultures, Thiazovivin was added to the media at 2 uM for the first 24 hr of incubation, after which the media was replaced with fresh N1VA media for additional three-day incubation at 37° C. with 5% CO2.
iPSC-fRPE cells were plated with N1VA media at a density of 10,000 cells per well in Matrigel-coated 96-well plates and cultured for 24 hr prior to the treatment with test compounds at a final concentration of 5 μM in 0.1% DMSO. Internal controls for each test plate were (a) 0.1% DMSO as a negative control and (b) 0.1% DMSO+10 ng/ml human recombinant bFGF (STEMCELL) as a positive control. To identify hits that promote RPE pigmentation, cells were maintained for a period of 32 days and treated with medium containing the test or control compounds according to the media exchange regimen (FIG. 1). The degree of pigmentation was quantified by measuring the light absorbance at 510 nm with Cytation5 imaging reader (BIOTEK). Compounds that increased the normalized absorbance endpoint by more than three standard deviations over the average DMSO readout per plate were considered as hits. Pigmentation values are finally reported relative to plate internal DMSO controls.

Row | Compound | Relative Pigmentation | pigmentation of RPE cells / activity, result in words
1 | O=C(Nc1ccc(-c2cnco2)c(Cl)c1)C1Cc2ccccc2CO1 (racemic) [Compound 3, N-(3-chloro-4-(oxazol-5-yl)phenyl)isochromane-3-carboxamide] | 1.66 | –
2 | O=C(Nc1ccc(-c2cnco2)c(Cl)c1)C1CCOc2ccccc21 (racemic) [Compound 4, N-(3-chloro-4-(oxazol-5-yl)phenyl) chromane-4-carboxamide] | 2.65 | –
3 | O=C(Nc1ccc(-c2cnco2)c(Cl)c1)C1CCc2ccccc21 (racemic) [Compound 6, N-(3-chloro-4-(oxazol-5-yl)phenyl)-2,3-dihydro-1H-indene-1-carboxamide] | 1.86 | –
4 | O=C(Nc1ccc(-c2cnco2)c(Cl)c1)C1COc2ccccc2C1 (single isomer, unassigned; (+)) [Compound 2, (+)-N-(3-chloro-4-(1,3-oxazol-5-yl)phenyl)chromane-3-carboxamide] | 1.68 | –
5 | O=C(Nc1ccc(-c2cnco2)c(Cl)c1)C1COc2ccccc2C1 (single isomer, unassigned; (-)) [Compound 1, (−)-N-(3-chloro-4-(1,3-oxazol-5-yl)phenyl)chromane-3-carboxamide] | 3.05 | excellent results
6 | O=C(Nc1ccc(-c2cnco2)c(Cl)c1)C1Cc2ccccc2C1 [Compound 7, N-(3-chloro-4-(oxazol-5-yl)phenyl)-2,3-dihydro-1H-indene-2-carboxamide] | 2.92 | excellent results
7 | N-(3-chloro-4-(oxazol-5-yl)phenyl)-1,2,3,4-tetrahydronaphthalene-2-carboxamide [Compound 5] | 1.18 | –
